Common to all, as to type: binding
In one experiment the target is T1, MLNR (Homo sapiens, UniProt O43193).
T1 construct: purchased Promega (in-house HiBiT-GPCR construct library, NanoBRET)
Nature of the experiment: NanoBRET screen HiBiT-MLNR in HEK293. As for the experimental part: (§1) Each tracer candidate was screened across the entire library of HiBiT-GPCR constructs using NanoBRET as the detection modality. As depicted in Figure 4A, the specificity of interactions was evaluated through decrease in BRET due to competitive displacement of a bound tracer by excess parental compound. Each tracer was analyzed for binding to each HiBiT-GPCR fusion in the absence and in the presence of competing parental compound. Briefly, HEK293 cells were transfected with HiBiT-GPCR constructs diluted into promoterless DNA to reduce expression and maximize translocation to the cell surface. Each tracer candidate was then screened at concentrations of 1 μM and 0.1 μM across cells expressing these fusions. Cells were treated for 1.5 h with tracer either alone or in the presence of 20 μM competing parental compound (i.e., control). BRET was measured upon addition of purified LgBiT and subsequent complementation with HiBiT genetically fused to a GPCR. The specificity of interactions was assessed through a decrease in BRET signal due to competitive displacement of the bound tracer. To further gauge the robustness of these interactions, the fold response over the control (i.e., BRETtracer/BRETcontrol) was calculated. We chose a 1.5-fold response, which translates to ≥7-fold signal over noise as the minimal threshold required to score an interaction as positive. […]. Below we highlight the screening results obtained for our exemplary fluorescent tracers based on Clozapine, Amitriptyline and AZD1283.
(§2) HiBiT-GPCR DNA constructs were diluted in 10 mM Tris pH 8 to a final concentration of 0.01 μg/μL, arrayed in 96-well plates and stored at −20 °C. For transfection, HEK293 cells were suspended in Opti-MEM (without phenol red) supplemented with 2% fetal bovine serum (Seradigm) and 100 units/mL penicillin–streptomycin (Gibco) at a final concentration of 220,000 cells/mL and dispensed into white 96-well plates at 90 μL/well. Subsequent transfections and screens were carried using an Agilent Bravo Automated Liquid Handling Platform. First, the 96-well HiBiT DNA arrays were diluted 25-fold in Opti-MEM (without serum or phenol red) to a final concentration of 0.0004 μg/μL and 20 μL of the diluted DNAs were transferred into new 96-well plates. Next, promoterless carrier DNA (1 μg/μL) was diluted 25-fold (0.04 μg/μL) and then dispensed into the diluted arrays at 20 μL/well. Following brief mixing, Viafect transfection reagent (Promega) diluted 16-fold into Opti-MEM was dispensed into the plates at 40 μL/well. After mixing by pipetting, plates were incubated for 10 min on the pipetting station deck. The DNA-transfection reagent complexes were then added to plates containing cells. To facilitate the screen, 10 μL of DNA-transfection reagent complexes were added in duplicates to the top 4 and bottom 4 rows, resulting in two identical 48-well arrays per plate. Plates with transfected cells were incubated for 18–20 h at 37 °C/5% CO2. A screen of each tracer across the entire library using two different concentrations requires duplicate plates of transfected cells. Depending on the number of tracers being screened, transfections can be scaled up using the same ratios. The next day, for each tracer, four 20× screening solutions in tracer dilution buffer (Promega) were prepared: two duplicates at final concentration of 20 μM and two duplicates at a final concentration of 2 μM. A competing unmodified compound was added to one of each duplicate at a final concentration of 400 μM. The four resulting solutions were diluted 4-fold in Opti-MEM without serum or phenol red to generate 5× solutions (5 µM and 0.5 µM tracer +/− 100 μM competing compound). To screen the library, a BioTek MultiFlo FX liquid dispenser was used to dispense 22.5 µL of tracer solution to the top 4 rows and 22.5 µL tracer + competing compound solution to the 4 bottom rows. Plates were briefly mixed on an orbital shaker and incubated for 1.5 h at room temperature. […]
Background: Bioluminescence resonance energy transfer reports proximity on the nanometre scale.

In the next experiment the target is T2, VIPR2 (Homo sapiens, UniProt P41587).
T2 construct: purchased Promega (in-house HiBiT-GPCR construct library, NanoBRET)
T2 sequence (P41587 24-438): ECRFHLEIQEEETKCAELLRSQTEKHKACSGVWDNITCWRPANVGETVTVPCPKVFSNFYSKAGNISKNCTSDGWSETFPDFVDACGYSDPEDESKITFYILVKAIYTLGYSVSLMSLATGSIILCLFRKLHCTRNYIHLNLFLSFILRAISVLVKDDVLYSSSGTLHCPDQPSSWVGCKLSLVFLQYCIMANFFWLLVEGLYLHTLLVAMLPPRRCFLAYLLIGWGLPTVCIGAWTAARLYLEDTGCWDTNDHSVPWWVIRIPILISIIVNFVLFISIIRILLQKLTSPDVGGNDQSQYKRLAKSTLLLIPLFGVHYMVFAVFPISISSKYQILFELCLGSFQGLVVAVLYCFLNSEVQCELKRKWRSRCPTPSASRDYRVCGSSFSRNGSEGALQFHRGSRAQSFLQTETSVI
Nature of the experiment: NanoBRET screen HiBiT-VIPR2 in HEK293. On the procedure: as §1, §2

The target of another experiment is T3, PTGFR (Homo sapiens, UniProt P43088).
T3 construct: purchased Promega (in-house HiBiT-GPCR construct library, NanoBRET)
T3 sequence (P43088 whole entry): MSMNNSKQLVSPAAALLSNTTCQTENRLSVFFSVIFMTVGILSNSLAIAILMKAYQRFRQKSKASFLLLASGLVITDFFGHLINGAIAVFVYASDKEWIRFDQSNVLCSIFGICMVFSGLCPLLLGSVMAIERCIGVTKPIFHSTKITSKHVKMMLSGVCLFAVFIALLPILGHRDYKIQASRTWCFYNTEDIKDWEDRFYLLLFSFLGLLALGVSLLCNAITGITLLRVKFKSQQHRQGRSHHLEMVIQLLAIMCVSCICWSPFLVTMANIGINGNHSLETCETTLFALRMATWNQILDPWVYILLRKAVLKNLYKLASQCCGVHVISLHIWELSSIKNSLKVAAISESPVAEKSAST
Nature of the experiment: NanoBRET screen HiBiT-PTGFR in HEK293. As for the experimental part: as §1, §2

[1] abbreviates: tracer at 0.1μM, listed as amitriptyline-b-2-NB590.

T1 sequence (O43193 whole entry): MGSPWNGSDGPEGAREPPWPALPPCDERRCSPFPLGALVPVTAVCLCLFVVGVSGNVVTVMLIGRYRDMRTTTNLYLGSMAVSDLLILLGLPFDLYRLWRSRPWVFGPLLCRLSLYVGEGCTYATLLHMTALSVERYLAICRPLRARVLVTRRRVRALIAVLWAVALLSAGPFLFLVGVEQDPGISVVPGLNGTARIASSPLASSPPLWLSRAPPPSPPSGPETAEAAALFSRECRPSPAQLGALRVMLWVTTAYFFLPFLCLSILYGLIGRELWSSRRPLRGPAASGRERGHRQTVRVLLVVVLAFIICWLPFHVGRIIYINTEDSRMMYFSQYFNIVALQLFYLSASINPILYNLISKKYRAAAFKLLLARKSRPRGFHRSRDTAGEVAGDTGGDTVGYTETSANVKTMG

Turning to `CC(C)N(CC[C@H](c1ccccc1)c1cc(CCNC(=O)c2ccc(CNC(=O)CCc3ccc4n3[B-](F)(F)[N+]3=C(c5ccc[nH]5)C=CC3=C4)cc2)ccc1O)C(C)C` [Tolterodine-BZ-NB590], the “NanoBRET Fold Response” value stood at 1.06 at MLNR (MLNR, tracer 0.1μM); 1.05 on MLNR (MLNR, tracer 1μM); 0.98 at VIPR2 (VIPR2, tracer 0.1μM); 1.07 at VIPR2 (VIPR2, tracer 1μM); 0.99 on PTGFR (PTGFR, tracer 0.1μM); 1.01 on PTGFR (PTGFR, tracer 1μM).
On to `O=C(CCc1ccc2n1[B-](F)(F)[N+]1=C(c3ccc[nH]3)C=CC1=C2)NCCOCCOCCNC(=O)OCCOCCN1CCN(C2=Nc3ccccc3Sc3ccccc32)CC1` [Quetiapine-a-2-NB590], for which the “NanoBRET Fold Response” value at MLNR (MLNR, tracer 0.1μM) came to 1.02; at MLNR (MLNR, tracer 1μM) it was 0.86; at VIPR2 (VIPR2, tracer 0.1μM), 0.96; at VIPR2 (VIPR2, tracer 1μM), 0.96; at PTGFR (PTGFR, tracer 0.1μM), 1.00; at PTGFR (PTGFR, tracer 1μM), 1.06.
For the molecule `Cc1cc2c(s1)Nc1ccccc1N=C2N1CCN(CCCNC(=O)CCOCCOCCOCCOCCNC(=O)CCc2ccc3n2[B-](F)(F)[N+]2=C(c4ccc[nH]4)C=CC2=C3)CC1` [Olanzapine-a-2-NB590], the “NanoBRET Fold Response” value is given as 1.27 at MLNR (MLNR, tracer 0.1μM); 1.15 at MLNR (MLNR, tracer 1μM); 1.00 at VIPR2 (VIPR2, tracer 0.1μM); 1.05 on VIPR2 (VIPR2, tracer 1μM); 1.03 on PTGFR (PTGFR, tracer 0.1μM); 1.07 on PTGFR (PTGFR, tracer 1μM).
Consider `CN(C)CCC=C1c2ccccc2CCc2ccc(C(=O)NCCNC(=O)CCOCCOCCOCCOCCNC(=O)CCc3ccc4n3[B-](F)(F)[N+]3=C(c5ccc[nH]5)C=CC3=C4)cc21` [Amitriptyline-b-2-NB590], for which the “NanoBRET Fold Response” value on MLNR (setting [1]) was found to be 1.19; at VIPR2 (setting [1]), 1.31; at VIPR2 (tracer at 1μM, listed as amitriptyline-b-2-NB590), 1.31; on PTGFR (tracer at 0.1μM), 1.01; on PTGFR (tracer at 1μM) it was 1.00.
In the case of `O=C(CCOCCOCCOCCOCCNC(=O)CCc1ccc2n1[B-](F)(F)[N+]1=C(c3ccc[nH]3)C=CC1=C2)NCCCN1CCN(C2=Nc3cc(Cl)ccc3Nc3ccccc32)CC1` [Clozapine-a-2-NB590], the “NanoBRET Fold Response” value is recorded as 0.94 at MLNR (MLNR, 0.1μM tracer); 1.08 on MLNR (MLNR, 1μM tracer); 1.14 at VIPR2 (VIPR2, 0.1μM tracer); 0.89 at VIPR2 (VIPR2, 1μM tracer); 1.04 on PTGFR (PTGFR, 0.1μM tracer); 1.02 on PTGFR (PTGFR, 1μM tracer).
For the molecule `CN1CCN(C2=Nc3cc(Cl)ccc3Nc3ccc(CNC(=O)CCOCCOCCOCCOCCNC(=O)CCc4ccc5n4[B-](F)(F)[N+]4=C(c6ccc[nH]6)C=CC4=C5)cc32)CC1` [Clozapine-b-2-NB590], the “NanoBRET Fold Response” value on MLNR (MLNR, 0.1μM tracer) was 1.02; on MLNR (MLNR, 1μM tracer), 1.41; on VIPR2 (VIPR2, 0.1μM tracer), 1.02; at VIPR2 (VIPR2, 1μM tracer), 0.96; at PTGFR (PTGFR, 0.1μM tracer), 1.02; at PTGFR (PTGFR, 1μM tracer) it was 1.07.
For `Cc1nc2n(c(=O)c1CCN1CCC(c3noc4cc(F)ccc34)CC1)CCCC2OC(=O)NCCOCCOCCOCCOCCNC(=O)CCc1ccc2n1[B-](F)(F)[N+]1=C(c3ccc[nH]3)C=CC1=C2` (centres unmarked) [Risperidone-2-NB590], the “NanoBRET Fold Response” value on MLNR (MLNR, tracer 0.1μM) turned out to be 0.93; at MLNR (MLNR, tracer 1μM) it was 0.97; on VIPR2 (VIPR2, tracer 0.1μM), 1.03; at VIPR2 (VIPR2, tracer 1μM) it was 0.91; at PTGFR (PTGFR, tracer 0.1μM), 1.00; on PTGFR (PTGFR, tracer 1μM), 1.02.

The values above are taken from article PMC8151276, “An Integrated Approach toward NanoBRET Tracers for Analysis of GPCR Ligand Engagement” (Molecules, 2021).
